Counter-ions that a name gives are not always drawn.
Experiments:
human mPGES-1 = human mPGES-1 (Homo sapiens (Human), UniProt O14684); assay: mPGES-1 inhibitory activity test; assay type: biochemical; details: for inhibition at 0.01 µM: 10 nM test compound; for inhibition at 0.1 µM: 100 nM test compound; for IC50: microsomes of CHO-K1 cells expressing human mPGES-1, PGH2 1 μM, PGE2 by HTRF, read-out: mPGES-1 inhibition (IC50 nM)
How it was run: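 PGE2 formation was quantified by HTRF and reported as percent inhibition at 10 and 100 nM compound or as IC50. The 60-second reaction at 4° C used 1 μM PGH2, after a 20-minute 4° C preincubation of compound (1% DMSO final) with glutathione-supplemented (2.5 mM, pH 7.4) microsomes. The microsomes were from transiently transfected CHO-K1 cells expressing human mPGES-1.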

human A549 cells = assay: Inhibition test of PGE2 production using human A549 cells; assay type: cell-based; details: IL-1β stimulated A549 cells, 24 h, PGE2 by HTRF, read-out: A549 cell inhibition of PGE2 production IC50
How it was run: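 PGE2 (HTRF) and PGF2a (EIA) were quantified in medium after 24 h, 37°C IL-1β stimulation (5 ng/well) of human A549 cells that had received test compound 60 min beforehand (0.1% DMSO, 3% FBS RPMI). IC50 relative to the window between IL-1β-stimulated and unstimulated controls.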

Sequence of human mPGES-1 (O14684 whole entry): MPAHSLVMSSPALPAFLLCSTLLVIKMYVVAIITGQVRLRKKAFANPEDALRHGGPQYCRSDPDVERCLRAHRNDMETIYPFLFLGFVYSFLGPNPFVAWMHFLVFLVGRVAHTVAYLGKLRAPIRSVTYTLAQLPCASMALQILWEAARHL

inhibition at 0.01 µM (human mPGES-1) | inhibition at 0.1 µM (human mPGES-1) | IC50 (human A549 cells) | IC50 (human mPGES-1) | Structure (SMILES)
48% |  | 10 nM |  | CC(C)(C)CC(=O)NCc1ccc(Cl)c(C(=O)Nc2cccc3c2cnn3-c2cccc(OC(F)(F)F)c2)c1 [Example 121, 2-Chloro-5-{[(3,3-dimethylbutanoyl)amino]methyl}-N-{1-[3-(trifluoromethoxy)phenyl]-1H-indazol-4-yl}benzamide]
80% |  | 23.6 nM |  | O=C(Nc1cccc2c1cnn2-c1cscn1)c1cc(CNC(=O)C2(C(F)(F)F)CC2)ccc1Cl [Example 189, 2-Chloro-N-[1-(1,3-thiazol-4-yl)-1H-indazol-4-yl]-5-[({[1-(trifluoromethyl)cyclopropyl]carbonyl}amino)methyl]benzamide]
 |  | 6.3 nM | 0.2 nM | O=C(Nc1cccc2c1cnn2-c1ccccc1)c1cc(CNC(=O)C2CC2)ccc1Cl [Example 2, 2-Chloro-5-{[(cyclopropylcarbonyl)amino]methyl}-N-(1-phenyl-1H-indazol-4-yl)benzamide]
 |  | 0.6 nM | 0.1 nM | CC(C)(C)C(=O)NCc1ccc(Cl)c(C(=O)Nc2cccc3c2cnn3-c2cccc(OC(F)(F)F)c2)c1 [Example 71, 2-Chloro-5-{[(2,2-dimethylpropanoyl)amino]methyl}-N-{1-[3-(trifluoromethoxy)phenyl]-1H-indazol-4-yl}benzamide]
 |  | 3.6 nM | 2.2 nM | CCOc1ccc(-n2ncc3c(NC(=O)c4cc(CNC(=O)C(C)(C)C)ccc4Cl)cccc32)cc1 [Example 65, 2-Chloro-5-{[(2,2-dimethylpropanoyl)amino]methyl}-N-[1-(4-ethoxyphenyl)-1H-indazol-4-yl]benzamide]
100% |  | 9.8 nM |  | O=C(Nc1cccc2c1cnn2-c1cccc(OC(F)(F)F)c1)c1cc(CNS(=O)(=O)C2CC2)ccc1Cl [Example 126, 2-Chloro-5-{[(cyclopropylsulfonyl)amino]methyl}-N-{1-[3-(trifluoromethoxy)phenyl]-1H-indazol-4-yl}benzamide]
 |  | 4.4 nM | 10 nM | O=C(Nc1cccc2c1cnn2-c1ccc(C(F)(F)F)cc1)c1cc(CNC(=O)C2(O)CC2)ccc1Cl [Example 27]
54% | 100% | 59.4 nM |  | O=C(Nc1cccc2c1cnn2-c1cccc(OC(F)F)c1)c1cc(CNC(=O)C2(O)CC2)ccc1Cl [Example 141, 2-Chloro-N-{1-[3-(difluoromethoxy)phenyl]-1H-indazol-4-yl}-5-({[(1-hydroxycyclopropyl)carbonyl]amino}methyl)benzamide]
89% | 85% | 0.3 nM |  | COc1ccc(-n2ncc3c(NC(=O)c4cc(CNC(=O)C5(C(F)(F)F)CC5)ccc4Cl)cccc32)cc1C(F)(F)F [Example 263, 2-Chloro-N-{1-[4-methoxy-3-(trifluoromethyl)phenyl]-1H-indazol-4-yl}-5-[({[1-(trifluoromethyl)cyclopropyl]carbonyl}amino)methyl]benzamide]
63% | 86% | 7.1 nM |  | CC(C)(CO)C(=O)NCc1ccc(Cl)c(C(=O)Nc2cccc3c2cnn3-c2ccc(F)cc2)c1 [Example 156, 2-Chloro-N-[1-(4-fluorophenyl)-1H-indazol-4-yl]-5-([(3-hydroxy-2,2-dimethylpropanoyl)amino]methyl)benzamide]
78% |  | 0.6 nM |  | CC(C)(CO)C(=O)NCc1ccc(Cl)c(C(=O)Nc2cccc3c2cnn3-c2cccc(C(F)(F)F)c2)c1 [Example 223, 2-Chloro-5-{[(3-hydroxy-2,2-dimethylpropanoyl)amino]methyl}-N-{1-[3-(trifluoromethyl)phenyl]-1H-indazol-4-yl}benzamide]
 |  | 1.6 nM | 1.8 nM | Cc1cccc(-n2ncc3c(NC(=O)c4cc(CNC(=O)C5CC5)ccc4Cl)cccc32)c1 [Example 7, 2-Chloro-5-{[(cyclopropylcarbonyl)amino]methyl}-N-[1-(3-methylphenyl)-1H-indazol-4-yl]benzamide]
100% |  | 5.9 nM |  | COCC(=O)NCc1ccc(Cl)c(C(=O)Nc2cccc3c2cnn3-c2ccc(F)cc2)c1 [Example 155, 2-Chloro-N-[1-(4-fluorophenyl)-1H-indazol-4-yl]-5-([(methoxyacetyl)amino]methyl)benzamide]

More lines, now with the values behind:

Structure (SMILES) | inhibition at 0.01 µM (human mPGES-1) | inhibition at 0.1 µM (human mPGES-1) | IC50 (human A549 cells) | IC50 (human mPGES-1)
O=C(Nc1cccc2c1cnn2-c1ccc(C(F)(F)F)nc1)c1cc(CNC(=O)C2CCCC2)ccc1Cl [Example 174, 2-Chloro-5-{[(cyclopentylcarbonyl)amino]methyl}-N-{1-[6-(trifluoromethyl)pyridin-3-yl]-1H-indazol-4-yl}benzamide] | 85% | 86% | 1.9 nM | 
CC(C)(C)C(=O)NCc1ccc(Cl)c(C(=O)Nc2cccc3c2cnn3CCCCc2ccccc2)c1 [Example 108, 2-Chloro-5-{[(2,2-dimethylpropanoyl)amino]methyl}-N-[1-(4-phenylbutyl)-1H-indazol-4-yl]benzamide] |  |  | 20.6 nM | 11.1 nM
O=C(Nc1cccc2c1cnn2-c1ccc(C(F)(F)F)cc1)c1cc(CNS(=O)(=O)C2CC2)ccc1Cl [Example 23, 2-Chloro-5-{[(cyclopropylsulfonyl)amino]methyl}-N-{1-[4-(trifluoromethyl)phenyl]-1H-indazol-4-yl}benzamide] |  |  | 1.5 nM | 5.2 nM
CC(C)(C)C(=O)NCc1ccc(Cl)c(C(=O)Nc2cccc3c2cnn3CC2CCCCC2)c1 [Example 100, 2-Chloro-N-[1-(cyclohexylmethyl)-1H-indazol-4-yl]-5-{[(2,2-dimethylpropanoyl)amino]methyl}benzamide] |  |  | 1.9 nM | 1 nM
CC(C)(C)C(=O)NCc1ccc(Cl)c(C(=O)Nc2cccc3c2cnn3-c2cncc(C3CC3)c2)c1 [Example 64, 2-Chloro-N-[1-(5-cyclopropylpyridin-3-yl)-1H-indazol-4-yl]-5-{[(2,2-dimethylpropanoyl)amino]methyl}benzamide hydrochloride] |  |  | 1.9 nM | 1.4 nM
CC(C)(C)C(=O)NCc1ccc(Cl)c(C(=O)Nc2cccc3c2cnn3-c2ccc(C#N)cc2)c1 [Example 55, 2-Chloro-N-[1-(4-cyanophenyl)-1H-indazol-4-yl]-5-([(2,2-dimethylpropanoyl)amino]methyl)benzamide] |  |  | 1.8 nM | 1.3 nM
O=C(Nc1cccc2c1cnn2-c1ccc(C(F)(F)F)cc1)c1cc(CNC(=O)C2CCCCC2)ccc1Cl [Example 31, 2-Chloro-5-{[(cyclohexylcarbonyl)amino]methyl}-N-{1-[4-(trifluoromethyl)phenyl]-1H-indazol-4-yl}benzamide] |  |  | 5.5 nM | 1.6 nM
CC(C)(C)C(=O)NCc1ccc(C(F)(F)F)c(C(=O)Nc2cccc3c2cnn3-c2cscn2)c1 [Example 201, 5-{[(2,2-Dimethylpropanoyl)amino]methyl}-N-[1-(1,3-thiazol-4-yl)-1H-indazol-4-yl]-2-(trifluoromethyl)benzamide] | 85% | 97% | 20.1 nM | 
O=C(Nc1cccc2c1cnn2-c1cncc(C(F)(F)F)c1)c1cc(CNS(=O)(=O)C2CC2)ccc1Cl [Example 172, 2-Chloro-5-{[(cyclopropylsulfonyl)amino]methyl}-N-{l-[5-(trifluoromethyl)pyridin-3-yl]-1H-indazol-4-yl}benzamide] | 100% |  | 5.6 nM | 
O=C(Nc1cccc2c1cnn2-c1ccc(C(F)(F)F)cc1)c1cc(CNC(=O)[C@H]2CC[C@H](O)CC2)ccc1Cl [Example 39, 2-Chloro-5-({[trans-(4-hydroxycyclohexyl)carbonyl]amino}methyl)-N-{1-[4-(trifluoromethyl)phenyl]-1H-indazol-4-yl}benzamide] |  |  | 5.1 nM | 7.5 nM
Cc1cc(-n2ncc3c(NC(=O)c4cc(CNC(=O)C(C)(C)C)ccc4Cl)cccc32)ccc1OC(F)(F)F [Example 82, 2-Chloro-5-{[(2,2-dimethylpropanoyl)amino]methyl}-N-{1-[3-methyl-4-(trifluoromethoxy)phenyl]-1H-indazol-4-yl}benzamide] |  |  | 0.3 nM | 10 nM
Cc1ccc(-n2ncc3c(NC(=O)c4cc(CNS(=O)(=O)C5CC5)ccc4Cl)cccc32)cc1Cl [Example 132, 2-Chloro-N-[1-(3-chloro-4-methylphenyl)-1H-indazol-4-yl]-5-{[(cyclopropylsulfonyl)amino]methyl}benzamide] | 86% |  | 1.5 nM | 
CC(C)(C)C(=O)NCc1ccc(Cl)c(C(=O)Nc2cccc3c2cnn3-c2nccs2)c1 [Example 80, 2-Chloro-5-{[(2,2-dimethylpropanoyl)amino]methyl}-N-[1-(1,3-thiazol-2-yl)-1H-indazol-4-yl]benzamide] |  |  | 5.2 nM | 1.1 nM
COc1cc(-n2ncc3c(NC(=O)c4cc(CNC(=O)C(C)(C)CO)ccc4Cl)cccc32)ccn1 [Example 164, 2-Chloro-5-{[(3-hydroxy-2,2-dimethylpropanoyl)amino]methyl}-N-[1-(2-methoxypyridin-4-yl)-1H-indazol-4-yl]benzamide] | 69% | 100% | 28.4 nM | 
Cc1cc(-n2ncc3c(NC(=O)c4cc(CNC(=O)C5CCCC5)ccc4Cl)cccc32)ccn1 [Example 235, 2-Chloro-5-{[(cyclopentylcarbonyl)amino]methyl}-N-[1-(2-methylpyridin-4-yl)-1H-indazol-4-yl]benzamide] | 53% | 88% | 6.1 nM | 
